In patent US20260337162A1, “TRYPTAMINE COMPOUNDS, COMPOSITIONS, AND METHODS OF USE” (priority 2022, published 2026):
Entries after “also recorded” stand apart in the source; their conditions may differ. Like-named read-outs stand apart in the source and are kept apart here.

Tests used:
[1] = cited from earlier work
5-HT2A receptor [2] = molecular target: T1, 5-HT2A receptor (Homo sapiens, UniProt P28223); assay: 5-HT2A receptor functional screening assay (efficacy relative to maximal 5-HT response); format: cell-based; settings: for activation at 0.5 µM: 500 nM
T1 construct: expressed in transfected cells
Description: (§1) 5-HT2 receptor-mediated Gq stimulation [phosphoinositide hydrolysis leading to the production of inositol phosphate 1 (IP1)]-canonical signaling pathways-were measured as previously described (Canal, C. E., Cordova-Sintjago, T., Liu, Y., Kim, M. S., Morgan, D., and Booth, R. G., 2013, Molecular pharmacology and ligand docking studies reveal a single amino acid difference between mouse and human serotonin 5-HT2A receptors that impacts behavioral translation of novel 4-phenyl-2-dimethylaminotetralin ligands, J Pharmacol Exp Ther 347, 705-716; Canal, C. E., Morgan, D., Felsing, D., Kondabolu, K., Rowland, N. E., Robertson, K. L., Sakhuja, R., and Booth, R. G., 2014, A Novel Aminotetralin-Type Serotonin (5-HT)(2C) Receptor —Specific Agonist and 5-HT2A Competitive Antagonist/5-HT2B Inverse Agonist with Preclinical Efficacy for Psychoses, J Pharm Exp Ther 349, 533), for example, with a homogeneous time-resolved fluorescence (HTRF) capable microplate reader (e.g., Mithras LB 940, Berthold) using commercially-available kits employing Fluorescence Resonance Energy Transfer (FRET) technology (e.g., IP-One HTRF (Cisbio) kits). Briefly, CHO-K1 or HEK293 cells expressing a single serotonergic 5-HT2 receptor subtype were incubated with test compounds and 5-HT or DOI (positive control) in stimulation buffer containing LiCl. After equilibration, the reaction was terminated with the donor and acceptor fluorescent conjugates in lysis buffer, and FRET was measured with a microplate reader (Berthold Mithras). Data were fit to non-linear curves to calculate potencies (e.g., EC50) and efficacies (e.g., EMAX), relative to positive controls (e.g., serotonin).

5-HT2A receptor [3] = molecular target: T1, 5-HT2A receptor; assay: Dose-response 5-HT2A functional assay (IP1 formation); format: cell-based
Description: (§2) FIG. 27 is a graph showing the dose-response 5-HT2A functional assay results as a percent of control agonist response for compound II-2; tested in duplicate at the indicated concentrations and the EC50 values were determined by non-linear regression analysis of the concentration-response curves generated with mean replicate values using Hill equation curve fitting;
as §2, with “28” for “27”, “compounds III-2 and IV-21;” for “compound II-2;”, “fitting; and” for “fitting;”
as §1
The results from tests of 5-HT2A functional activities of this series of compounds were also unexpected in the context of the unusual results observed from competition binding assays. […] Complete dose-response 5-HT2A and 5HT2B functional assays (measuring IP1 formation) were conducted for III-2 and IV-21 by a second, independent laboratory.

[4] = molecular target: T2, human serotonin 5-HT2A receptor (Homo sapiens, UniProt P28223); assay: Radioligand ([3H]LSD) competition binding, 5-HT2A receptor; settings: for 5-HT2A receptor affinity (in words) / competition binding curve shape / Ki: [3H]LSD; for competition binding curve shape / competition for [3H]LSD-labeled 5-HT2A receptors: in words; for Ki: one-site fit Ki model; for competition for [3H]LSD-labeled 5-HT2A receptors: up to 10 μM for partial competition
T2 construct: host or cells: HEK293 (ATCC CRL-1573)
Description: Binding affinity (Ki) and functional potency and efficacy (EC50 and EMAX) values of the compounds were measured.
Radioligand competition binding was performed as previously described (Saraf, T. S., Felsing, D. E., Armstrong, J. L., Booth, R. G., and Canal, C. E., 2021, Evaluation of lorcaserin as an anticonvulsant in juvenile Fmr1 knockout mice, Epilepsy Res 175, 106677), with minor modifications, using human cloned 5-HT2A receptors. Plasmids encoding human serotonin 5-HT2A receptor cDNA were procured from the cDNA Resource Center. Human embryonic kidney cells (HEK293, ATCC CRL-1573) were grown in a cell incubator in 100 mm dishes with antibiotic-free Dulbecco's modified Eagle's medium containing 10% fetal bovine serum. Cells were transfected at ~85% confluency with 5-15 μg cDNA using TransIT-2020 reagent (Mirus Bio, Madison, Wisconsin). After approximately 48 hours, cell membrane was collected via centrifugation. For all experiments, serotonin (5-HT) hydrochloride was used as a positive control, and mianserin hydrochloride (10 μM) was used to define non-specific binding. Each cell membrane homogenate expressing 5-HT2A receptors was incubated at room temperature in 96-well plates with [^3H] […] Following equilibration, each sample was filtered rapidly under vacuum through fiberglass filters presoaked in a buffer and washed by vacuum several times with an ice-cold buffer. Filters were soaked with scintillation fluid and counts per minute were detected using photodetectors (Microbeta Scintillation Counter). […] Data shown are the results from all experiments combined. As is known, G protein-coupled receptors, including the 5-HT2A receptor, can exist in multiple conformations, and ligands, typically agonist ligands, have unique affinities for these conformations of the receptor (Kenakin, T. Theoretical Aspects of GPCR-Ligand Complex Pharmacology, Chem. Rev. 2017, 117, 1, 4-20). […] However, for simplicity reasons, affinity of these compounds are reported herein as fitted to the single-site model. The data point for −10 samples is total specific binding (no compound present), and −4 was interpolated to complete the binding curves to 0 specific binding.

in vivo = format: in vivo, adult, male C57BL/6J mice; settings: 10 mg/kg PO; for concentration at 10 min / concentration at 0.5 h / concentration at 2 h: mouse, in vivo, po, 10 mg/kg; for concentration at 0.5 h: 30 min; for concentration at 2 h: 120 min
Description: PK profiles were established in adult, male C57BL/6J (Jackson Laboratories). Mice were housed in standard laboratory cages with ad libitum access to food and water, and were acclimated to the vivarium for at least one week prior to testing in a procedure room. In a typical experiment, mice were administered 10 mg/kg of test compound by oral gavage and plasma and brain samples were collected at 10, 30, and 120 min with n-3 for each time point. Quantification of the parent molecule was done using LC-MS/MS method (LLOQ, 0.9 nM).

5-HT2A receptor [5] = assay: Head-twitch response (HTR) and behavioral observation in mice; format: in vivo, adult, male C57BL/6J mice; settings: 10 mg/kg PO; for HTR (per min): 30 min counting; for elicitation of HTR (in words) / qualitative behavioral changes: mice
Description: The HTR assay was performed in adult, male C57BL/6J mice, procured from the Jackson Laboratory (Bar Harbor, Maine), as previously described (Canal, C. E., and Morgan, D., 2012, Head-twitch response in rodents induced by the hallucinogen 2,5-dimethoxy-4-iodoamphetamine: a comprehensive history, a re-evaluation of mechanisms, and its utility as a model, Drug Test Anal 4, 556-576; Saraf, T. S., Felsing, D. E., Armstrong, J. L., Booth, R. G., and Canal, C. E., 2021, Evaluation of lorcaserin as an anticonvulsant in juvenile Fmr1 knockout mice, Epilepsy Res 175, 106677). Mice were housed in standard laboratory cages with ad libitum access to food and water, and were acclimated to the vivarium for at least one week prior to testing in a procedure room. On the day of testing, mice were acclimated to the procedure room in their home cages for ≥60 min before administration of test compounds. Test articles were administered at 10 mg/kg by oral gavage and mice were placed immediately thereafter in a clear, polycarbonate box (46×20×20 cm), and HTRs were counted for 30 consecutive minutes, using hand-held tally counters, by two trained observers who were blind to treatment.

[6] = brain, read-out: PK data, Brain, 10 min
[7] = brain, read-out: PK data, Brain, 30 min
[8] = brain, read-out: PK data, Brain, 120 min
[9] = plasma, read-out: PK data, Plasma, 10 min
[10] = plasma, read-out: PK data, Plasma, 30 min
[11] = plasma, read-out: PK data, Plasma, 120 min

T2 sequence (P28223 whole entry): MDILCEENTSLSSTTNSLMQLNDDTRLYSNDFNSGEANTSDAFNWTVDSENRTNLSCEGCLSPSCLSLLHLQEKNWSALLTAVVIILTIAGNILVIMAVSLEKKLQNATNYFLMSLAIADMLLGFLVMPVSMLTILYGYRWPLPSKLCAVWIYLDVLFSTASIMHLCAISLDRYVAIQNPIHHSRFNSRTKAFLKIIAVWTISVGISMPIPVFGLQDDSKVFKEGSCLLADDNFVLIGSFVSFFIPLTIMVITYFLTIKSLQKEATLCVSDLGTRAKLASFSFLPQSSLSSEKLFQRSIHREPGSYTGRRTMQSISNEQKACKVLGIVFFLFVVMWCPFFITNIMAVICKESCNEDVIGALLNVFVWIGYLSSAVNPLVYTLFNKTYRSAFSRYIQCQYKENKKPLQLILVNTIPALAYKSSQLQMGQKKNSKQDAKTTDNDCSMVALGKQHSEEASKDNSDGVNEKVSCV
T1 sequence (P28223 whole entry): as above

Structure (SMILES): COc1ccc2[nH]cc(CCN(C)C)c2c1 [Compound 5-MeO-DMT, 5-methoxy-N,N-dimethyltryptamine]
- duration of action ([1]; in vivo): 5 to 15 min
- oral activity / oral bioavailability ([1]; oral): lacks oral bioavailability

Structure (SMILES): CN(C)CCc1c[nH]c2ccc(SC(F)(F)F)cc12 [Compound I-3, N,N-dimethyl-2-(5-((trifluoromethyl)thio)-1H-indol-3-yl) ethan-1-amine]
- activation at 0.5 µM (5-HT2A receptor [2]): -34.2%
- activation at 50 µM (5-HT2A receptor [2]): 43.9%

Structure (SMILES): CN(C)CCc1c[nH]c2ccccc12 [DMT, N,N-dimethyltryptamine]
- oral activity / oral bioavailability ([1]; in vivo, po): not orally active
- duration of action ([1]; in vivo): 5 to 15 min

Structure (SMILES): FC(F)CCN(CCc1c[nH]c2ccccc12)CCC(F)F [II-2, N-(2-(1H-indol-3-yl)ethyl)-N-(3,3-difluoropropyl)-3,3-difluoropropan-1-amine]
- EC50 (5-HT2A receptor [3]; IP1 formation): 596 nM
- Emax (5-HT2A receptor [3]; percent of control agonist response): 79%
- activation at 0.5 µM (5-HT2A receptor [2]): 1.4%

Structure (SMILES): FC(F)(F)CCN(CCc1c[nH]c2ccccc12)CCC(F)(F)F [II-3, N-(2-(1H-indol-3-yl)ethyl)-3,3,3-trifluoro-N-(3,3,3-trifluoropropyl) propan-1-amine]
- activation at 0.5 µM (5-HT2A receptor [2]): -29.7%
- activation at 50 µM (5-HT2A receptor [2]): > 50%

Structure (SMILES): CN(CCc1c[nH]c2ccccc12)CCC(F)(F)F [II-6, N-(2-(1H-indol-3-yl)ethyl)-3,3,3-trifluoro-N-methylpropan-1-amine]
- activation at 0.5 µM (5-HT2A receptor [2]): -7.7 ± 11.6%
- activation at 50 µM (5-HT2A receptor [2]): -3.1 ± 9.6%
- 5-HT2A receptor affinity (in words) [4]: high affinities
- competition binding curve shape [4]: multiple slopes
- Ki [4]: 12 nM
- competition for [3H]LSD-labeled 5-HT2A receptors [4]: complete competition
- brain penetration (in words) (in vivo; mice): brain-penetrant
- concentration at 10 min (in vivo; [6]): 1550 to 12600 nM
- concentration at 0.5 h (in vivo; [7]): 720 to 4710 nM
- concentration at 2 h (in vivo; [8]): 21 to 1130 nM
- concentration at 10 min (in vivo; [9]): 820 to 7760 nM
- concentration at 0.5 h (in vivo; [10]): 390 to 3140 nM
- concentration at 2 h (in vivo; [11]): 7 to 440 nM
- HTR (per min) (5-HT2A receptor [5]): <1 per min
- elicitation of HTR (in words) (5-HT2A receptor [5]): did not elicit a HTR
- qualitative behavioral changes (5-HT2A receptor [5]): reduced locomotion and “hiccup” responses

Structure (SMILES): FC(F)(F)CN(CCc1c[nH]c2ccccc12)CC(F)(F)F [II-10, N-(2-(1H-indol-3-yl)ethyl)-2,2,2-trifluoro-N-(2,2,2-trifluoroethyl) ethan-1-amine]
- competition for [3H]LSD-labeled 5-HT2A receptors [4]: only partial competition

Structure (SMILES): CN(CCc1c[nH]c2ccccc12)CC(F)F [II-12, N-(2-(1H-indol-3-yl)ethyl)-2,2-difluoro-N-methylethan-1-amine]
- activation at 0.5 µM (5-HT2A receptor [2]): 19.9%
- activation at 50 µM (5-HT2A receptor [2]): 30.3%

Structure (SMILES): FC1(F)CCN(CCc2c[nH]c3ccccc23)CC1 [II-21, 3-(2-(4,4-difluoropiperidin-1-yl)ethyl)-1H-indole]
- activation at 0.5 µM (5-HT2A receptor [2]): 9.2%
- activation at 50 µM (5-HT2A receptor [2]): -25.4%

Structure (SMILES): Oc1cccc2[nH]cc(CCN(CCC(F)(F)F)CCC(F)(F)F)c12 [III-3, 3-(2-(bis(3,3,3-trifluoropropyl)amino)ethyl)-1H-indol-4-ol]
- activation at 0.5 µM (5-HT2A receptor [2]): 29.2%
- activation at 50 µM (5-HT2A receptor [2]): > 50%

Structure (SMILES): CN(CCc1c[nH]c2cccc(O)c12)CCC(F)(F)F [III-6, 3-(2-(methyl (3,3,3-trifluoropropyl)amino)ethyl)-1H-indol-4-ol]
- activation at 0.5 µM (5-HT2A receptor [2]): 53.5%
- activation at 50 µM (5-HT2A receptor [2]): > 50%
- 5-HT2A functional activity (in words) (5-HT2A receptor [2]; in vitro screening, II-15: both 500 nM and 50 μM): agonist activity; also recorded: behaved as an agonist
- 5-HT2A receptor affinity (in words) [4]: high affinities; also recorded: potent affinity
- competition binding curve shape [4]: multiple slopes
- Ki [4]: 12 nM
- competition for [3H]LSD-labeled 5-HT2A receptors [4]: complete competition
- concentration at 10 min (in vivo; [6]): 200 to 1300 nM
- concentration at 0.5 h (in vivo; [7]): 120 to 420 nM
- concentration at 2 h (in vivo; [8]): 3 to 20 nM
- concentration at 10 min (in vivo; [9]): 170 to 620 nM
- concentration at 0.5 h (in vivo; [10]): 72 to 180 nM
- concentration at 2 h (in vivo; [11]): 2 to 16 nM
- HTR (per min) (5-HT2A receptor [5]): <1 per min
- elicitation of HTR (in words) (5-HT2A receptor [5]): did not elicit a HTR; also recorded: did not elicit the 5-HT2A-dependent HTR
- qualitative behavioral changes (5-HT2A receptor [5]): reduced locomotion and “hiccup” responses; also recorded: “hiccup” like responses and caused hypolocomotion

Structure (SMILES): CN(CCc1c[nH]c2cccc(O)c12)CC(F)F [III-12, 3-(2-((2,2-difluoroethyl)(methyl)amino)ethyl)-1H-indol-4-ol]
- activation at 0.5 µM (5-HT2A receptor [2]): 17.8%
- activation at 50 µM (5-HT2A receptor [2]): > 50%

Structure (SMILES): CN(C)CCc1c[nH]c2cccc(OP(=O)(O)O)c12 [Psilocybin, psilocybin]
- MAO-mediated metabolism ([1]; in vivo): undergo MAO-mediated metabolism in vivo

Structure (SMILES): CN(C)CCc1c[nH]c2cccc(O)c12 [psilocin]
- MAO-mediated metabolism ([1]; in vivo): undergo MAO-mediated metabolism in vivo
